The values that follow are results of earlier work, collected in patent publication US10709668B2, “Sprinkle formulations of acamprosate” (priority 2015, dated 2020).

For data set [1] the following is noted: humans.
For data set [2] the following is noted: subjects with autism and fragile x syndrome (WO 2010093859).

`CC(=O)NCCCS(=O)(=O)O` [acamprosate, 3-(Acetylamino)propylsulfonic acid]: the Oral bioavailability result in data set [1] is on record as “about 11%”. In addition, in data set [2], the “Improvement in primary outcomes (CGI-I, CGI-S)” value is on record as “marked improvements”.
